Km data for 3 compounds are collected here from paper PMC7735563, “5,5-Dialkylluciferins are thermal stable substrates for bioluminescence-based detection systems” (PLoS ONE, 2020).

In this experiment the test system is T1, Ultra-Glo™ luciferase.
T1 construct: gene Firefly luciferase; HisLink purified; starting enzyme also obtained from Promega
The experiment is described as follows: luminescence, Michaelis-Menten. The following applies: 1 mM ATP, Bright-Glo buffer, 25 °C. Format: biochemical. The text has this:
luminescence, Michaelis-Menten on Ultra-Glo™ luciferase
Consider `CC1(C)SC(c2nc3ccc(O)cc3s2)=NC1C(=O)O` (racemic) [III-a, 2-(6-Hydroxybenzo[d]thiazol-2-yl)-5,5-dimethyl-4,5-dihydrothiazole-4-carboxylic acid], for which the Michaelis-Menten constant (Km) (commonly the concentration of substrate that gives half-maximal velocity) stood at 7.47 µM.

`O=C(O)C1N=C(c2nc3ccc(O)cc3s2)SC12CC2` (racemic) [III-b, 5-(6-Hydroxybenzo[d]thiazol-2-yl)-4-thia-6-azaspiro[2.4]hept-5-ene-7-carboxylic acid]: the Km was 1.71 µM. Under `O=C(O)[C@H]1CSC(c2nc3ccc(O)cc3s2)=N1` [LH2, D-luciferin] stands 0.49 µM.
